Reference: patent publication US20230202997A1, “CHROMANOL, QUINONE OR HYDROQUINONE COMPOUNDS FOR TREATMENT OF SEPSIS” (Sulfateq B.V., priority 2020, published 2023)

How the values were obtained:
[1] = test system: plasma levels of IL-6, TNF-α and IL12; assay: CLP sepsis model, plasma cytokines by ELISA; type: in vivo; conditions: CLP mice; SUL-138 5 mg/kg s.c. 2 h before and 8 h after surgery; 24 hours
Protocol: To induce sepsis, the standard cecal ligation and puncture (CLP) model was used. Animals were anesthetized by subcutaneous injection of xylazine/ketamine (100/10 mg/kg), followed by administration of buprenorphine (0.1 mg/kg) as analgesic. After confirmation of anesthesia by lack of response to paw pinch and eye reflex, the abdomen was shaved, cleaned, and de-germed using a povidone-iodine solution before a 1-cm midline incision was made. The cecum was ligated with a 6-0 suture at half the distance between distal pole and the base of the cecum and punctured once with a 21-Gauge needle (‘through-and-through’ from mesenteric toward anti-mesenteric direction) which is an accepted model for ‘mid-grade’ sepsis. A small amount of stool (2-3 mm) was then extruded to ensure wound patency. The cecum was repositioned, thereby taking care not to spill fecal material on the wound edges, followed by closure of the abdomen by running sutures to the abdominal musculature and short interrupted sutures to the skin. Next, 1 ml of saline (warmed, 0.9% NaCl s.c.) was administered to compensate for the expected relative volume depletion due to the onset of sepsis.
Mice in the SUL-138 treated groups were injection with SUL-138 (dissolved in saline, 5 mg/kg, s.c.) at 2 hours before and 8 hours after surgery, while mice in the other groups were injected with an equal volume of saline at these time-points.
Mice were sacrificed 24 hours after the procedure. Upon euthanization, EDTA-anticoagulated blood was separated into plasma by centrifugation at 1,600 g for 10 min and serum by allowing it to clot for 30 min followed by centrifugation at 3,000 g for 10 min.
To quantify the effect of sepsis severity and treatment with SUL-138 on systemic inflammation, levels of TNFα, IL-6 and IL-12 in plasma were measured using Mouse DuoSet ELISAs (DY410, DY406 and D419, respectively, RnD-Systems), according to the manufacturer's instructions. […] The optical density (OD) was measured using a microplate reader set to 450 nm, while readings at 540 nm were subtracted as correction to increase accuracy.

IL-1β mRNA expression = assay: Inhibition of LPS-induced IL-1β mRNA expression in HUVEC; type: cell-based, Human; conditions: 10 μM for 30 min, then LPS 24 hours
Protocol: (§1) Human Umbilical Cord Endothelial Cells (HUVEC, Lonza CC-2519) were maintained on 1% gelatin-coated culture flasks in RPMI1640 medium containing 20% fetal bovine serum, 2 mM Glutamine (Sigma-Aldrich), 1% Penicillin-Streptomycin solution (Sigma-Aldrich) and 50 μg/ml Bovine Pituitary Extract (Invitrogen). HUVEC were passaged by trypsinization when the cultures reach a confluency of 70%. For all experiments, HUVEC were seeded at 0.6·10^5 cells/cm^2 and allowed to adhere for 24 hours.
HUVEC and NRK52E cells were pre-incubated with SUL compounds (10 μM) for 30 min and subsequently exposed to LPS for 24 hours under standard culture conditions. Cells were lysed in triZOL reagens (Invitrogen) and total RNA isolated according to manufacturers' instruction. 1 μg total RNA per sample was reverse transcribed using the FirstAid Reverse Transcription Kit (ThermoFisher). Copy-DNA equivalents of 5 ng total RNA were amplified on a ViiA7 Real-time PCR system (ThermoFisher, Waltham, Mass.) using iTaq Universal SYBR Green Supermix (Bio-Rad, Hercules, Calif.) and primers specific for tumor necrosis factor alpha, interleukin 1 beta, interleukin-6 and beta actin as loading control. Amplification was performed for 40 cycles of 95° C. for 30 s, 60° C. for 1 min. Relative mRNA expression was calculated as 2^−(Cq^gene^−Cq^reference^) and normalized to unstimulated control cells (100% inhibition) and vehicle-treated and LPS exposed cells (0% inhibition). The following primers were used: […]

NO production in HUVEC = assay: Endothelial NO production (nitrate in conditioned medium), basal and after LPS; type: cell-based, Human; conditions: 10 μM pre-treatment, LPS 100 ng/ml for 24 hours
Protocol: as §1
Cellular production of NO was approximated by measuring nitrate concentrations in culture media using the Measure-IT™ High-Sensitivity Nitrite Assay Kit (#M36051, ThermoFisher) according to manufacturer's instructions. […] Therefore, nitrate concentrations in conditioned media are a good approximate to assess cellular NO production. 50 μl conditioned medium derived from a single 96-wells plate well was used per assay and normalized against protein concentration. All experiments were performed in quadruplicate.
Endotoxins suppress endothelial NO production by limiting the activity of eNOS. HUVEC were pre-treated with vehicle (DMSO), BN-80933, SUL-138, or SUL-150 or (all 10 μM) prior to endotoxin (LPS 100 ng/ml) exposure for 24 hours. The nitrate levels in the conditioned medium from endothelial cells exposed to LPS averaged at 160 pmol/mg protein (˜33% reduction versus non LPS exposed HUVEC, p=0.002), which was lower than basal control levels. BN-80933 further suppressed the nitrate levels in the conditioned medium (FIG. 7A) to an average of 90 pmol/mg protein (p=0.008).

`Cc1c(C)c2c(c(C)c1O)CC[C@@](C)(C(=O)N1CCN(CCO)CC1)O2` [SUL-138, (S)-(6-hydroxy-2,5,7,8-tetramethylchroman-2-yl)(4-(2-hydroxyethyl)piperazin-1-yl)methanone] was tested, and the “plasma level of IL12” value [1] was “decreased by treatment with SUL-138 to levels close to untreated control”, the “plasma level of IL-6” value [1] was “decreased by treatment with SUL-138 to levels close to untreated control” and the “plasma level of TNF-α” value [1] was “clearly lower, but the difference did not reach significance”. The “inhibition of LPS-induced mRNA expression of IL-1β” value (IL-1β mRNA expression) was 76.3 ± 7.9 % and the “nitrate levels in the conditioned medium after LPS” value (NO production in HUVEC) was “mitigated the LPS-induced reduction in nitrate levels and their levels did not change from basal nitrate level”.
